Experimental data reported in the supplement of paper PMC10011410.

Columns and labels:
[1] = tested on: U-2 OS; assay: cell painting activity score (Mahalanobis distance from DMSO wells); higher = stronger morphological phenotype; details: 24 h
Protocol: (§1)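 Cell painting in U-2 OS cells (384-well, about 1,500 cells per well), compound exposure 24 h, usually six 2-fold concentrations from 20 to 0.625 uM (some compounds higher or lower). Relative cell count is the cell number per well relative to DMSO wells. Activity score is the Mahalanobis distance of the morphological profile from DMSO control wells. Mean of four technical replicate plates.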

[2] = tested on: U-2 OS; assay: relative cell count vs DMSO (cell painting) (fraction of DMSO control); higher = more cells remaining (less cytotoxic); details: 24 h
Protocol: as §1

[3] = tested on: U-2 OS; assay: AUC of culture confluence over time (live-cell imaging) (AUC (confluence % x time)); higher = more confluent culture (less growth inhibition)
Protocol: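 Live-cell Incucyte imaging of U-2 OS cells in F-12K medium. Compounds were tested mostly at 5, 10 and 20 uM, and cells were imaged every 4 h for up to 60 h. Value is the area under the curve of phase-contrast confluence over time.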

| Compound | cell painting activity score ([1]; 0.625 µM) | cell painting activity score ([1]; 1.25 µM) | cell painting activity score ([1]; 2.5 µM) | cell painting activity score ([1]; 5 µM) | cell painting activity score ([1]; 10 µM) | cell painting activity score ([1]; 20 µM) | relative cell count ([2]; 0.625 µM) | relative cell count ([2]; 1.25 µM) | relative cell count ([2]; 2.5 µM) | relative cell count ([2]; 5 µM) | relative cell count ([2]; 10 µM) | relative cell count ([2]; 20 µM) | AUC of culture confluence over time ([3]; 5 µM) | AUC of culture confluence over time ([3]; 10 µM) | AUC of culture confluence over time ([3]; 20 µM) |
| --- | --- | --- | --- | --- | --- | --- | --- | --- | --- | --- | --- | --- | --- | --- | --- |
| O=c1c(O)c(-c2ccc(O)c(O)c2)oc2cc(O)ccc12 | 5.44 | 5.04 | 4.93 | 4.23 | 4.83 | 7.46 | 0.969 | 0.938 | 0.943 | 0.939 | 0.932 | 0.945 | 52.8 | 52 | 47.7 |
| COC1=C2C[C@@H](C)C[C@H](OC)[C@H](O)[C@@H](C)/C=C(\C)[C@H](OC(N)=O)[C@@H](OC)/C=C\C=C(/C)C(=O)NC(=CC1=O)C2=O | 8.75 | 12.7 | 13 | 14 | 13.3 | 14.5 | 0.954 | 0.911 | 0.867 | 0.759 | 0.663 | 0.619 | 20.3 | 18.8 | 20.8 |
| CNC(=O)c1cc(Oc2ccc(NC(=O)Nc3ccc(Cl)c(C(F)(F)F)c3)cc2)ccn1 | 10.7 | 11.4 | 10.3 | 12.4 | 9.94 | 10.5 | 1.02 | 0.956 | 0.971 | 0.978 | 0.705 | 0.348 | 50.1 | 29.6 | 15.6 |
| CN(N=O)C(=O)N[C@@H]1[C@@H](O)[C@H](O)[C@@H](CO)O[C@@H]1O | 12.4 | 14.8 | 14.4 | 13.9 | 10.4 | 10.8 | 1.04 | 0.929 | 0.893 | 0.893 | 0.88 | 0.851 | 48.1 | 46.7 | 48.1 |
| C[C@@]1(CO)[C@H](O)CC[C@@]2(C)[C@H]1CC[C@H]1C[C@@H]3C[C@@]12CC[C@]3(O)CO | 13.5 | 12.7 | 14.8 | 14.8 | 16.2 | 15.8 | 0.886 | 0.788 | 0.683 | 0.659 | 0.621 | 0.622 | 30.1 | 29 | 28.6 |
| CN1CCN(CCOc2cc(OC3CCOCC3)c3c(Nc4c(Cl)ccc5c4OCO5)ncnc3c2)CC1 | 8.87 | 8.9 | 9.68 | 9.8 | 10.5 | 11.3 | 0.997 | 0.953 | 0.993 | 0.997 | 0.991 | 0.933 | 39.5 | 33.5 | 34.5 |
| O=C(CBr)N1CC([N+](=O)[O-])([N+](=O)[O-])C1 | 6.87 | 7.38 | 11.3 | 10.6 | 11.8 | 11.3 | 0.992 | 1.02 | 0.919 | 0.891 | 0.972 | 0.873 | 50 | 49.9 | 42.4 |
| C[C@]12O[C@H](C[C@]1(O)CO)n1c3ccccc3c3c4c(c5c6ccccc6n2c5c31)CNC4=O | 20.6 | 21.4 | 22.3 | 23.1 | 23.1 | 22.8 | 0.654 | 0.525 | 0.521 | 0.516 | 0.453 | 0.138 | 25.9 | 23.6 | 23.8 |
